Test results from the NIST ThermoML archive (doi:10.1016/j.jct.2013.05.040).

What was measured:
[1] = xn = mol fraction of the nth substance listed; details: Liquid; for viscosity: Moving piston method; for mass density: Vibrating tube method
[2] = Liquid; for mass density: Vibrating tube method; for viscosity: 101.33 kPa, Moving piston method

C [methane] + CC(C)O
[1]
Details | mass density, 302.8 K [kg/m3] | mass density, 323.1 K [kg/m3] | viscosity, 302.8 K [mPa·s] | viscosity, 323.1 K [mPa·s]
980 kPa, x1 = 0.018 | – | 754.5 | – | 0.908
1070 kPa, x1 = 0.019 | 771.2 | – | 1.523 | –
2020 kPa, x1 = 0.033 | – | 750 | – | 0.847
2080 kPa, x1 = 0.037 | 767.2 | – | 1.403 | –
3080 kPa, x1 = 0.049 | – | 745 | – | 0.8
3190 kPa, x1 = 0.055 | 761.2 | – | 1.339 | –
4080 kPa, x1 = 0.065 | – | 740.7 | – | 0.74
4080 kPa, x1 = 0.069 | 756.5 | – | 1.262 | –
4980 kPa, x1 = 0.078 | – | 736.9 | – | 0.717
5080 kPa, x1 = 0.085 | 753.3 | – | 1.208 | –
6040 kPa, x1 = 0.093 | – | 732.3 | – | 0.676
6060 kPa, x1 = 0.1 | 748.9 | – | 1.129 | –

CC(C)O [propan-2-ol]
mass density [kg/m3], [2]
Details | 302.9 K | 323 K
1000 kPa | – | 760.6
1040 kPa | 778.1 | –
2000 kPa | 778.9 | –
2020 kPa | – | 761.6
2990 kPa | 779.8 | –
3000 kPa | – | 762.7
4060 kPa | 780.8 | –
4070 kPa | – | 763.7
5000 kPa | – | 764.7
5010 kPa | 781.6 | –
6000 kPa | 782.5 | –
6010 kPa | – | 765.7
7020 kPa | 783.4 | 766.7
8010 kPa | – | 767.7
8020 kPa | 784.3 | –
9000 kPa | 785.1 | –
9010 kPa | – | 768.6
10000 kPa | 786 | –
10020 kPa | – | 769.6

[2]
Details | viscosity [mPa·s]
303.3 K | 1.716
323.2 K | 0.973
